# Measured values reported in ChEMBL document CHEMBL3885861, “Open TG-GATES”.
# Organism: Rattus norvegicus
# Assay: Open TG-GATES - Regimen: Single
# Type: toxicity, organism-based, Sprague-Dawley
# Design: regimen Single, gender Male, age 6 weeks
# Details: in vivo, ip, route intraperitoneal injection; for KIDNEY_L / KIDNEY_R / KIDNEY_TOTAL: tissue Kidney; for LIVER: tissue Liver
# [1] = 0 mg/kg, 3 h, dose 0 ug/Kg, dose level Control
# [2] = 0 mg/kg, 3 h, tissue Blood, dose 0 ug/Kg, dose level Control
# [3] = 0 mg/kg, 3 h, tissue Plasma, dose 0 ug/Kg, dose level Control
# [4] = 0 mg/kg, 6 h, dose 0 ug/Kg, dose level Control
# [5] = 0 mg/kg, 6 h, tissue Blood, dose 0 ug/Kg, dose level Control
# [6] = 0 mg/kg, 6 h, tissue Plasma, dose 0 ug/Kg, dose level Control
# [7] = 0 mg/kg, 9 h, dose 0 ug/Kg, dose level Control
# [8] = 0 mg/kg, 9 h, tissue Blood, dose 0 ug/Kg, dose level Control
# [9] = 0 mg/kg, 9 h, tissue Plasma, dose 0 ug/Kg, dose level Control
# [10] = 0 mg/kg, 24 h, dose 0 ug/Kg, dose level Control
# [11] = 0 mg/kg, 24 h, tissue Blood, dose 0 ug/Kg, dose level Control
# [12] = 0 mg/kg, 24 h, tissue Plasma, dose 0 ug/Kg, dose level Control
substance,measurement,setting,value
LPS,TERMINAL_BW,[1],194.6 g
same,Bas,[2],0.3%
same,Eos,[2],0.7%
same,Ht,[2],40.7%
same,Lym,[2],72%
same,MCHC,[2],32.8%
same,MCV,[2],63.3 fL
same,Mono,[2],4%
same,Neu,[2],21.3%
same,PT,[2],15.7 s
same,Plat,[2],123.5 x10_4/uL
same,RBC,[2],644.3 x10_4/ul
same,Ret,[2],9.4%
same,WBC,[2],91.5 x10_2/uL
same,KIDNEY_L,[1],0.9 g
same,KIDNEY_R,[1],0.9 g
same,KIDNEY_TOTAL,[1],1.8 g
same,LIVER,[1],8.6 g
same,ALP,[3],1094.7 IU/L
same,ALT,[3],41.7 IU/L
same,AST,[3],78.3 IU/L
same,BUN,[3],8.7 mg/dL
same,CRE,[3],0.2 mg/dL
same,DBIL,[3],0.01 mg/dL
same,IP,[3],9.2 mg/dL
same,K,[3],4 meq/L
same,LDH,[3],110 IU/L
same,PL,[3],136.3 mg/dL
same,RALB,[3],2.5 g/dL
same,TBIL,[3],0.0467 mg/dL
same,TC,[3],76 mg/dL
same,TG,[3],41.3 mg/dL
same,TP,[3],5.3 g/dL
same,gamma-GTP,[3],1 IU/L
same,TERMINAL_BW,[4],195.4 g
same,APTT,[5],18.1 s
same,Bas,[5],0%
same,Eos,[5],0.3%
same,Fbg,[5],298.7 mg/dL
same,Hb,[5],12.9 g/dL
same,Ht,[5],39.5%
same,Lym,[5],71.3%
same,MCHC,[5],32.6%
same,MCV,[5],65.8 fL
same,Mono,[5],2.3%
same,Neu,[5],25%
same,PT,[5],15.7 s
same,Plat,[5],114.9 x10_4/uL
same,RBC,[5],601.3 x10_4/ul
same,Ret,[5],9.6%
same,WBC,[5],101.7 x10_2/uL
same,KIDNEY_L,[4],0.9 g
same,KIDNEY_R,[4],0.9 g
same,KIDNEY_TOTAL,[4],1.7 g
same,LIVER,[4],7.9 g
same,ALP,[6],1269.3 IU/L
same,ALT,[6],37.7 IU/L
same,AST,[6],75.7 IU/L
same,BUN,[6],7.3 mg/dL
same,CRE,[6],0.2 mg/dL
same,DBIL,[6],0.01 mg/dL
same,GLC,[6],178.3 mg/dL
same,IP,[6],10 mg/dL
same,K,[6],3.7 meq/L
same,LDH,[6],74 IU/L
same,PL,[6],138.7 mg/dL
same,RALB,[6],2.5 g/dL
same,TBIL,[6],0.0433 mg/dL
same,TC,[6],79.3 mg/dL
same,TG,[6],24.7 mg/dL
same,TP,[6],5.4 g/dL
same,gamma-GTP,[6],1 IU/L
same,TERMINAL_BW,[7],191.3 g
same,APTT,[8],17.1 s
same,Bas,[8],0%
same,Eos,[8],1%
same,Fbg,[8],304.3 mg/dL
same,Ht,[8],38.4%
same,Lym,[8],63.3%
same,MCHC,[8],32.8%
same,Mono,[8],2%
same,Neu,[8],33.7%
same,Plat,[8],116.1 x10_4/uL
same,RBC,[8],624 x10_4/ul
same,Ret,[8],8.1%
same,WBC,[8],71.4 x10_2/uL
same,KIDNEY_L,[7],0.9 g
same,KIDNEY_R,[7],0.9 g
same,KIDNEY_TOTAL,[7],1.8 g
same,LIVER,[7],7 g
same,ALP,[9],1080.7 IU/L
same,ALT,[9],48 IU/L
same,AST,[9],79 IU/L
same,BUN,[9],8.3 mg/dL
same,CRE,[9],0.2 mg/dL
same,Ca,[9],10 mg/dL
same,DBIL,[9],0.0033 mg/dL
same,GLC,[9],165 mg/dL
same,IP,[9],9.5 mg/dL
same,K,[9],3.8 meq/L
same,LDH,[9],53.7 IU/L
same,PL,[9],124.7 mg/dL
same,RALB,[9],2.4 g/dL
same,TBIL,[9],0.0467 mg/dL
same,TC,[9],73.3 mg/dL
same,TG,[9],13.3 mg/dL
same,TP,[9],5.2 g/dL
same,gamma-GTP,[9],1 IU/L
same,TERMINAL_BW,[10],209.1 g
same,Bas,[11],0.3%
same,Eos,[11],1.3%
same,Fbg,[11],302.3 mg/dL
same,Hb,[11],12.9 g/dL
same,Ht,[11],39.4%
same,Lym,[11],76.3%
same,MCH,[11],21 pg
same,MCHC,[11],32.8%
same,MCV,[11],64 fL
same,Mono,[11],3.7%
same,Neu,[11],17.3%
same,PT,[11],15.2 s
same,Plat,[11],115.4 x10_4/uL
same,RBC,[11],616.3 x10_4/ul
same,Ret,[11],8.6%
same,WBC,[11],115.5 x10_2/uL
same,KIDNEY_L,[10],0.9 g
same,KIDNEY_R,[10],0.9 g
same,KIDNEY_TOTAL,[10],1.8 g
same,LIVER,[10],9.7 g
same,ALP,[12],1572.7 IU/L
same,ALT,[12],48.3 IU/L
same,AST,[12],78 IU/L
same,BUN,[12],15 mg/dL
same,CRE,[12],0.2 mg/dL
same,DBIL,[12],0.01 mg/dL
same,GLC,[12],170.7 mg/dL
same,IP,[12],8.6 mg/dL
same,K,[12],4.4 meq/L
same,LDH,[12],86.7 IU/L
same,PL,[12],171.3 mg/dL
same,RALB,[12],2.6 g/dL
same,TBIL,[12],0.0533 mg/dL
same,TC,[12],98.7 mg/dL
same,TG,[12],55.3 mg/dL
same,TP,[12],5.7 g/dL
same,gamma-GTP,[12],1 IU/L
same,TERMINAL_BW,"0.01 mg/kg, 3 h, dose 10 ug/Kg, dose level Low",192 g
same,Bas,"0.01 mg/kg, 3 h, tissue Blood, dose 10 ug/Kg, dose level Low",0%
